Results taken from article PMC5761851, “Application of a phenotypic drug discovery strategy to identify biological and chemical starting points for inhibition of TSLP production in lung epithelial cells” (PLoS ONE, 2018).

Columns and labels:
Test in all cases: kinase selectivity panel
Type in all cases: biochemical
[1] = target: T1, TAK1 (Homo sapiens, UniProt O43318); details: read-out: percentage of control activity (POC), TAK1
T1 construct: purchased Eurofins Pharma Discovery Services (KinaseProfiler; Cerep BioPrint panel)
T1 sequence (O43318 1-303 limits assumed): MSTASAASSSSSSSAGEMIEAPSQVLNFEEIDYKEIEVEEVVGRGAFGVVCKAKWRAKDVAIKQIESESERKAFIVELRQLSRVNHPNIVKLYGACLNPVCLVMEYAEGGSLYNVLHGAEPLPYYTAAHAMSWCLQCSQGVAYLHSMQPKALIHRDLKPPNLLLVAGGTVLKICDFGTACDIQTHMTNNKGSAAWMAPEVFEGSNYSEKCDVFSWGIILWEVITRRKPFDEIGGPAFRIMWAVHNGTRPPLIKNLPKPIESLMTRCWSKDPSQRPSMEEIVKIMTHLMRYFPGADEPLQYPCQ
Method in brief: (§1)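 The compound is screened at 10 μM in duplicate against 125 representative kinases. Selected activities are followed up with a nine-concentration duplicate titration to give IC50.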

[2] = target: T2, BRK (Homo sapiens, UniProt Q13882); details: read-out: percentage of control activity (POC), BRK
T2 construct: purchased Eurofins Pharma Discovery Services (KinaseProfiler; Cerep BioPrint panel)
T2 sequence (Q13882 whole entry): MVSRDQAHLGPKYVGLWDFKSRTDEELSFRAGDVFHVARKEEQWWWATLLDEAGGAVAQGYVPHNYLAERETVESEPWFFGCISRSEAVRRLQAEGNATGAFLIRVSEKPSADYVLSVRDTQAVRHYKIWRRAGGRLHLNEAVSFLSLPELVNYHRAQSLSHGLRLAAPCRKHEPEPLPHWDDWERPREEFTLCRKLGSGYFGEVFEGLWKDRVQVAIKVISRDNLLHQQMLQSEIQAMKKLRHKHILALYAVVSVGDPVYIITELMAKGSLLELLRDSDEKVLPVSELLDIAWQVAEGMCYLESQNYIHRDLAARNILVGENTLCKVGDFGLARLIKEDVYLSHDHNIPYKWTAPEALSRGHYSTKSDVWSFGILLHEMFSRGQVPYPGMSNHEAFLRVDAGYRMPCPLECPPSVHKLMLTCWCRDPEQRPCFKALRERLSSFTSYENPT
Method in brief: as §1

[3] = target: T3, GSK3α (Homo sapiens, UniProt P49840); details: read-out: percentage of control activity (POC), GSK3α
T3 construct: purchased Eurofins Pharma Discovery Services (KinaseProfiler; Cerep BioPrint panel)
T3 sequence (P49840 whole entry): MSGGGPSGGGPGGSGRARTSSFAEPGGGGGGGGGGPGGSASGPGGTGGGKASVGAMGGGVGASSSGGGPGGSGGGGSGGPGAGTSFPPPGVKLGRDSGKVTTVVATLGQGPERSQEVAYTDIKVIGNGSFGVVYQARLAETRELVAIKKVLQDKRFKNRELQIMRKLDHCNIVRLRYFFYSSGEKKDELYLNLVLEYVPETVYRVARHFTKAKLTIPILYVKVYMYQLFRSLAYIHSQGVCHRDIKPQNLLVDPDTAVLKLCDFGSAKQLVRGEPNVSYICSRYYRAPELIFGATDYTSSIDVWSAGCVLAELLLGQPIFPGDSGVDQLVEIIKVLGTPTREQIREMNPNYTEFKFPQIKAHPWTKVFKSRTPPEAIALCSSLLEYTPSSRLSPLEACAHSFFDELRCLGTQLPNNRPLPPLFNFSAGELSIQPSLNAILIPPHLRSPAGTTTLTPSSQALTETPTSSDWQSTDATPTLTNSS
Method in brief: as §1

[4] = target: T4, CDK9/cyclin T1 (Homo sapiens, UniProt P50750); details: read-out: percentage of control activity (POC), CDK9/cyclin T1
T4 construct: purchased Eurofins Pharma Discovery Services (KinaseProfiler; Cerep BioPrint panel)
T4 sequence (P50750 whole entry): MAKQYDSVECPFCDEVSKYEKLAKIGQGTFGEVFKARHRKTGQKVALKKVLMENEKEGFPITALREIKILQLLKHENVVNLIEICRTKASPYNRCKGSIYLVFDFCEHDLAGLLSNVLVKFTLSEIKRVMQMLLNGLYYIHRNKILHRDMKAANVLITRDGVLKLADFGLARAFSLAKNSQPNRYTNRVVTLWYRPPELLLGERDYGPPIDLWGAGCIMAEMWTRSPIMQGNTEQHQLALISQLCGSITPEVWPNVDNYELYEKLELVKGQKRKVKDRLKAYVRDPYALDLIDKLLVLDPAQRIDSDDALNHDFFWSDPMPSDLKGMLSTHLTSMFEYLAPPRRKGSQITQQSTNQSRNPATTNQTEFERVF
T4 sequence (O60563 whole entry partner): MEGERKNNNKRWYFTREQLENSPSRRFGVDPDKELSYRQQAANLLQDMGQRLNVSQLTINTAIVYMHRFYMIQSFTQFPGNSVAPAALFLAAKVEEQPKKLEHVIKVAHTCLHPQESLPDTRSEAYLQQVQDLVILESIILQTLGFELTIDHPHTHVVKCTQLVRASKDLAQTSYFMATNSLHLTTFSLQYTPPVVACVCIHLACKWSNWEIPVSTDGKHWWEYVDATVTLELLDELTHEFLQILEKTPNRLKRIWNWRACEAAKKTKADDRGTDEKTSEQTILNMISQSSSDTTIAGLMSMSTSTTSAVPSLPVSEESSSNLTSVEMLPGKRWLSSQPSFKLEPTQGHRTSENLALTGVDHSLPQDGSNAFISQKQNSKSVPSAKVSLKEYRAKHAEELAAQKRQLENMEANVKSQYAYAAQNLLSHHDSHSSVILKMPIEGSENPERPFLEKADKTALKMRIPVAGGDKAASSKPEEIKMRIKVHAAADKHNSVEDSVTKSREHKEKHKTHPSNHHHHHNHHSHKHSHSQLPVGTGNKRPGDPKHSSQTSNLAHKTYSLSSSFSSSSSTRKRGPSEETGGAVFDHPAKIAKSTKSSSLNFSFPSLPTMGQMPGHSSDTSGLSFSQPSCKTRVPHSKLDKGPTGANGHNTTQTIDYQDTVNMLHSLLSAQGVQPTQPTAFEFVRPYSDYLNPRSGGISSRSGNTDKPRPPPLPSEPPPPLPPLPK
Method in brief: as §1

[5] = target: T5, PI3K (p110a/p85a) (Homo sapiens, UniProt P42336); details: read-out: percentage of control activity (POC), PI3K (p110a/p85a)
T5 construct: purchased Eurofins Pharma Discovery Services (KinaseProfiler; Cerep BioPrint panel)
Method in brief: as §1

[6] = target: T6, Rsk4 (Homo sapiens, UniProt Q9UK32); details: read-out: percentage of control activity (POC), Rsk4
T6 construct: purchased Eurofins Pharma Discovery Services (KinaseProfiler; Cerep BioPrint panel)
T6 sequence (Q9UK32 whole entry): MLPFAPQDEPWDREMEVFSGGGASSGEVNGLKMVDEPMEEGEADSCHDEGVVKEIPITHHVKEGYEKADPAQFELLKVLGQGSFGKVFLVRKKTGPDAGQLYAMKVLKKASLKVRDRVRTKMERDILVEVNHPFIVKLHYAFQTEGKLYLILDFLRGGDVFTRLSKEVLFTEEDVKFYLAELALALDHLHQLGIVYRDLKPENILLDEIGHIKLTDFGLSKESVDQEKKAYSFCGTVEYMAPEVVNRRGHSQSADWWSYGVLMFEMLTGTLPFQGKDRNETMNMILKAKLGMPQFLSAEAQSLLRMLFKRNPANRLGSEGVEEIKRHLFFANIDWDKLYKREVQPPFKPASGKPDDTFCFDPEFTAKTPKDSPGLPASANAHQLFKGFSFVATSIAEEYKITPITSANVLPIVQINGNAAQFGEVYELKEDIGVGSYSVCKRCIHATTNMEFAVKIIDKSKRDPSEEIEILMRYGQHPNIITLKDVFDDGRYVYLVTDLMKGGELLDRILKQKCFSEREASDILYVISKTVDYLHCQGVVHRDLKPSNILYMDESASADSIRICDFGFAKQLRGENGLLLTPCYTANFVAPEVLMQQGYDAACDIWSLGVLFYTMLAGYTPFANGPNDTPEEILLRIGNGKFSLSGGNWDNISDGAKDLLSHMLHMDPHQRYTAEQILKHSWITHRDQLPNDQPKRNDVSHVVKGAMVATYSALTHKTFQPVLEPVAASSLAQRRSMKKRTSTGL
Method in brief: as §1

[7] = target: T7, Hck (Homo sapiens, UniProt P08631); details: for remaining activity at 10 µM: read-out: percentage of control activity (POC), Hck
T7 construct: Eurofins Pharma Discovery Services (contract assay service)
Method in brief: as §1

[8] = target: T8, GSK3β (Homo sapiens, UniProt P49841); details: read-out: percentage of control activity (POC), GSK3β
T8 construct: purchased Eurofins Pharma Discovery Services (KinaseProfiler; Cerep BioPrint panel)
T8 sequence (P49841 whole entry): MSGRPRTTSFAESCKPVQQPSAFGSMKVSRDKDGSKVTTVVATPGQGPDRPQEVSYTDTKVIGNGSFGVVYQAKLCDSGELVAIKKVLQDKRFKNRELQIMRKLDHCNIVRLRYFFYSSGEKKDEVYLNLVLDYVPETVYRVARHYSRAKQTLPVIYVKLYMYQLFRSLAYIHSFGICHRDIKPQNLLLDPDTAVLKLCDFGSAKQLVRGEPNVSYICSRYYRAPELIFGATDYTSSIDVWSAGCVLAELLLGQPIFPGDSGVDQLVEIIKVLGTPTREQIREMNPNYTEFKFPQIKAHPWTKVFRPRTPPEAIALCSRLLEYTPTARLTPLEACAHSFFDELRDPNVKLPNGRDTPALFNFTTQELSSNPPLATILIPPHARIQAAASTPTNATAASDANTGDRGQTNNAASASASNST
Method in brief: as §1

[9] = target: T9, IRAK1 (Homo sapiens, UniProt P51617); details: read-out: percentage of control activity (POC), IRAK1
T9 construct: purchased Eurofins Pharma Discovery Services (KinaseProfiler; Cerep BioPrint panel)
Method in brief: as §1

[10] = target: T10, CHK1 (Homo sapiens, UniProt O14757); details: read-out: percentage of control activity (POC), CHK1
T10 construct: purchased Eurofins Pharma Discovery Services (KinaseProfiler; Cerep BioPrint panel)
T10 sequence (O14757 1-476): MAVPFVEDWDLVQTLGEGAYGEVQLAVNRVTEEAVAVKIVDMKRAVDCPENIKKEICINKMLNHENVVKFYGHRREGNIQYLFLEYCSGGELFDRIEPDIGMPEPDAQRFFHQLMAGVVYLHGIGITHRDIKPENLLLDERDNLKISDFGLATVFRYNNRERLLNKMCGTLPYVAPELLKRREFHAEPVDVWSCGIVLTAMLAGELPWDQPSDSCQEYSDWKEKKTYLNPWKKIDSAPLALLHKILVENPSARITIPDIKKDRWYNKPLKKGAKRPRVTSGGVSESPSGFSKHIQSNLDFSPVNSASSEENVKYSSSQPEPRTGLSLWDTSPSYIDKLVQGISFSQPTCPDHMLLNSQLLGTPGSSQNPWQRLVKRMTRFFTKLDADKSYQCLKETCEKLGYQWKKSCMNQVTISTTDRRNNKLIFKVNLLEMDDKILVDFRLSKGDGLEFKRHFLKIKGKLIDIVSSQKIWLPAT
Method in brief: as §1

[11] = target: T11, IKKα (Homo sapiens, UniProt O15111); details: read-out: percentage of control activity (POC), IKKα
T11 construct: purchased Eurofins Pharma Discovery Services (KinaseProfiler; Cerep BioPrint panel)
T11 sequence (O15111 1-745): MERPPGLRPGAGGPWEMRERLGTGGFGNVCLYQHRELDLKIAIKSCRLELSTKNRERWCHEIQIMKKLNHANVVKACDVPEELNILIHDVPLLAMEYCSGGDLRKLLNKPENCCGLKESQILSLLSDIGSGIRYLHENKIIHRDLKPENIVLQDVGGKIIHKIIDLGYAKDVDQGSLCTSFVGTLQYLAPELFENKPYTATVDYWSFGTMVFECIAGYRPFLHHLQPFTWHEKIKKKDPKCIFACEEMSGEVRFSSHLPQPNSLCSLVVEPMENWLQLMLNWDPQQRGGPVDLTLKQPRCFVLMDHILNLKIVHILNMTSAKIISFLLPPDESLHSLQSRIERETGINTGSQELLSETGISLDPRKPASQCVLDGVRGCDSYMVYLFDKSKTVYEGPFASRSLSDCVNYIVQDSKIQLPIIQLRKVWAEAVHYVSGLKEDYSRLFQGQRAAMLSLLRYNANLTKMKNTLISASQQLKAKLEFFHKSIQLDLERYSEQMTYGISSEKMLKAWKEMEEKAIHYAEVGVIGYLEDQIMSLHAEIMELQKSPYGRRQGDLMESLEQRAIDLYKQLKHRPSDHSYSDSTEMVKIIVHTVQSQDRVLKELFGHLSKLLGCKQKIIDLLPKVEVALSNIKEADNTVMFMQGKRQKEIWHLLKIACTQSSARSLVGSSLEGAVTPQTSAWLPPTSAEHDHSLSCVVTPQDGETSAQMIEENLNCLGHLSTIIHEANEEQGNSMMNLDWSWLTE
Method in brief: as §1

[12] = target: T12, CK2α2 (Homo sapiens, UniProt P19784); details: read-out: percentage of control activity (POC), CK2α2
T12 construct: purchased Eurofins Pharma Discovery Services (KinaseProfiler; Cerep BioPrint panel)
Method in brief: as §1

[13] = target: T13, MSK2 (Homo sapiens, UniProt O75676); details: read-out: percentage of control activity (POC), MSK2
T13 construct: purchased Eurofins Pharma Discovery Services (KinaseProfiler; Cerep BioPrint panel)
Method in brief: as §1

[14] = target: T14, MEK1 (Homo sapiens, UniProt Q02750); details: read-out: percentage of control activity (POC), MEK1
T14 construct: purchased Eurofins Pharma Discovery Services (KinaseProfiler; Cerep BioPrint panel)
T14 sequence (Q02750 whole entry): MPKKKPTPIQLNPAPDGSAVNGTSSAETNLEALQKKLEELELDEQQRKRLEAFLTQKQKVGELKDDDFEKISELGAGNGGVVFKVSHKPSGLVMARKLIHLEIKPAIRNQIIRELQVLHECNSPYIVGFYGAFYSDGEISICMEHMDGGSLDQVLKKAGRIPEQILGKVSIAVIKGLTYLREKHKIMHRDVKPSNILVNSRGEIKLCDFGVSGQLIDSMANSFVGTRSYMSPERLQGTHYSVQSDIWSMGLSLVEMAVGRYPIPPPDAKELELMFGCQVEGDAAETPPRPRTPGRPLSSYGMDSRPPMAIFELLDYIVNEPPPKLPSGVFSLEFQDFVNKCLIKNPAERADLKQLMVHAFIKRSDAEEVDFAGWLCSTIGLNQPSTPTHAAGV
Method in brief: as §1

[15] = target: T15, Fgr (Homo sapiens, UniProt P09769); details: read-out: percentage of control activity (POC), Fgr
T15 construct: purchased Eurofins Pharma Discovery Services (KinaseProfiler; Cerep BioPrint panel)
T15 sequence (P09769 whole entry): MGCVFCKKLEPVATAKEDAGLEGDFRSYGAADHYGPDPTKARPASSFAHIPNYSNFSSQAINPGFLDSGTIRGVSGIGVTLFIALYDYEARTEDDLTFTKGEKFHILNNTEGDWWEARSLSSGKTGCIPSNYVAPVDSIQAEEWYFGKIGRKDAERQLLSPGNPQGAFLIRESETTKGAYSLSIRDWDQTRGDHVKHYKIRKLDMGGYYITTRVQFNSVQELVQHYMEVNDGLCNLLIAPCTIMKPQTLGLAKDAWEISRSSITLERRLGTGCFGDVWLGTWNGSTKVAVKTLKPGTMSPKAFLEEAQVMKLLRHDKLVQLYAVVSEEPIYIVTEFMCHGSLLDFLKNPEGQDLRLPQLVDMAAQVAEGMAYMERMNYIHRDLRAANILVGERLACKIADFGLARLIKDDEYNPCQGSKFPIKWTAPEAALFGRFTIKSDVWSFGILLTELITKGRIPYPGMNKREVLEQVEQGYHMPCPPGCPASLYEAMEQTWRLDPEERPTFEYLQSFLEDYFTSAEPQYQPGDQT
Method in brief: as §1

[16] = target: T16, PKCδ (Homo sapiens, UniProt Q05655); details: read-out: percentage of control activity (POC), PKCδ
T16 construct: purchased Eurofins Pharma Discovery Services (KinaseProfiler; Cerep BioPrint panel)
T16 sequence (Q05655 whole entry): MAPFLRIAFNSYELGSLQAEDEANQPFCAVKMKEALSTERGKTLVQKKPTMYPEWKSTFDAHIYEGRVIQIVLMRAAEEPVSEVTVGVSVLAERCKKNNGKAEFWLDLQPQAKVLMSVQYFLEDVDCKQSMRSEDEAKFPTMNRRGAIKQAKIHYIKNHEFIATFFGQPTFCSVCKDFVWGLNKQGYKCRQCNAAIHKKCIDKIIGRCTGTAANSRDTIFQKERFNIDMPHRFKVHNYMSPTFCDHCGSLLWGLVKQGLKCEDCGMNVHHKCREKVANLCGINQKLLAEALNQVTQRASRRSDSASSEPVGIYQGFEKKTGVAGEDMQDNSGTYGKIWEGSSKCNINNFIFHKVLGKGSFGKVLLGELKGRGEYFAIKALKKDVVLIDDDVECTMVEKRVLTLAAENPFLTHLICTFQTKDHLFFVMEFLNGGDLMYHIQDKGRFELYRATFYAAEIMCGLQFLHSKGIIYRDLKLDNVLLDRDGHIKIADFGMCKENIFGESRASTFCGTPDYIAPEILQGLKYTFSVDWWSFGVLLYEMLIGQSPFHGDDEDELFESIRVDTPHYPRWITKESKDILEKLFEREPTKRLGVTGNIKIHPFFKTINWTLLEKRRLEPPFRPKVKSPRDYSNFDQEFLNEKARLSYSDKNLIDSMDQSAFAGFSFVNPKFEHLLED
Method in brief: as §1

Structure (SMILES) | remaining activity at 10 µM [1] [%] | remaining activity at 10 µM [2] [%] | remaining activity at 10 µM [3] [%] | remaining activity at 10 µM [4] [%] | remaining activity at 10 µM [5] [%] | remaining activity at 10 µM [6] [%] | remaining activity at 10 µM ([7]; 10 μM) [%] | remaining activity at 10 µM [8] [%] | remaining activity at 10 µM [9] [%] | remaining activity at 10 µM [10] [%] | remaining activity at 10 µM [11] [%] | remaining activity at 10 µM [12] [%] | remaining activity at 10 µM [13] [%] | remaining activity at 10 µM [14] [%] | remaining activity at 10 µM [15] [%] | remaining activity at 10 µM [16] [%] | inhibition at 10 µM ([7]; 10 μM) [%] | IC50 ([7]; biochemical dose response, duplicate, read-out: Inhibition of indicated activity (IC50, μM): Hck) [µM]
CC(C)(C)N1CCC(c2cc(-c3ccc(F)cc3Cl)c3cc[n+]([O-])c(-c4c(Cl)cccc4Cl)c3n2)CC1 [compound 2] | 105 | 98 | 107 | 96 | 97 | 102 | 84 | 99 | 102 | 103 | 102 | 105 | 90 | 112 | 99 | 109 |  | 
Cc1ccc(C(=O)NCC2CC2)cc1-c1ccc2c(c1)NC(=O)C21CCCC1 [compound 3] | 97 | 103 | 95 | 85 | 94 | 103 | 87 | 104 | 91 | 100 | 101 | 108 | 91 | 94 | 93 | 104 |  | 
Cn1cc(-c2cccc(-c3nc(C(=O)NC4C5CC6CC4CC(O)(C6)C5)c(N)nc3N)c2)cn1 (stereo not shown) [compound 4] | 97 | 71 | 76 | 95 | 60 | 110 | 47 | 105 | 89 | 94 | 100 | 105 | 96 | 97 | 67 | 97 | 53 | 3.58
CS(=O)(=O)N1CCN(c2ccc(Nc3ncc(C(N)=O)c(NC4CC4)n3)cc2)CC1 [compound 5] | 1 | 39 | 40 | 56 | 96 | 2 | 7 | 25 | 20 | 1 | 1 | 43 | 21 | 13 | 5 | 8 |  | 
COc1c(NC(=O)c2ccc(C)c(-c3nnc4c(NCC(C)(C)C)nccn34)c2)cc(C(C)(C)C)cc1NS(C)(=O)=O [compound 7, reference compound] | 103 | 98 | 103 | 97 | 95 | 131 | 84 | 117 | 95 | 103 | 135 | 114 | 109 | 107 | 98 | 107 |  | 
